The values below come from US7510704B2, “Cosmetic compositions” (Unilever Home & Personal Care USA division of Conopco, Inc., priority 2001, dated 2009).

The test relates to Corynebacterium A sp. NCIMB 40928. Nature of the test: In vitro model of fatty acid catabolism by axillary bacteria (culture viability and remaining fatty acid after 24 h). In kind it is cell-based. The following applies: for Viability / Fatty acid utilisation: 24 h; for Viability: 35° C.; for Fatty acid utilisation: pentadecanoic acid 2.0 mg/ml. As for the experimental part:
This experiment uses the methods of WO 00/01353 to illustrate the much greater efficacy of 4-hydroxy-3-methoxybenzyl alcohol at inhibiting fatty acid catabolism by corynebacteria A, when compared with analogous materials previously disclosed in the aforementioned publication. Data illustrating the sub-lethal aspect of the inhibition are also presented.
An in vitro model system, reproducing fatty acid catabolism by axillary bacteria, was used. To each of several 250 ml baffled shake flasks was added 30 ml semi-synthetic medium (see below), supplemented with fatty acid substrate (2.0 mg/ml pentadecanoic acid) and non-fatty acid substrate (0.5 mg/ml glucose). To each flask (other than the control) was also added one of the indicated test materials, as a 10% (w/v) emulsion in semi-synthetic medium, supplemented with Gum Arabic (5.0 mg/ml). (Emulsions were formed by ultra-homogenisation at 24,000 rpm for about 1 min.) Each of the flasks was inoculated with fresh bacterial biomass (Corynebacterium A sp. NCIMB 40928), pre-grown for 24 h in TSBT (see below), to give starting optical densities (A590) of 1.0-2.0. Following inoculation, the flasks were incubated aerobically at 35° C., with agitation (130 rpm), for 24 hours. After this time, culture viability and remaining fatty acid were determined by methodology as described in […].
Composition of semi-synthetic medium in g/l: KH2PO4 (1.6), (NH4)2HPO4 (5.0), Na2SO4 (0.38), yeast nitrogen base (3.35) (Difco), yeast extract (0.5) (Beta Lab), Tween 80™ (0.2), Triton X-100™ (0.2), and MgCl2.6H2O (0.5).
Composition of TSBT (Tween-supplemented Tryptone soya broth) in g/l: Tryptone soya broth (30.0) (Merck), yeast extract (10.0) (Beta Lab), and Tween 80™ (1.0).
NCIMB 40928 in terms of culture viability and fatty acid utilisation. Various concentrations of active were investigated. It will be noted that for each of the Examples, culture viability was not substantially affected.

Some results are limits rather than exact numbers.

Regarding `COc1ccc(CO)cc1O` [B, 3-hydroxy-4-methoxybenzyl alcohol], the Viability runs as follows: (active conc. 1.0 g/l) 8.90 log10CFU/ml; (active conc. 5.0 g/l) 8.99 log10CFU/ml; (active conc. 10.0 g/l) 8.62 log10CFU/ml. The Fatty acid utilisation runs as follows: (active conc. 1.0 g/l) 99%; (active conc. 5.0 g/l) 86%; (active conc. 10.0 g/l) 29%.
For `COc1cc(CCO)ccc1O` [C, 4-hydroxy-3-methoxyphenethyl alcohol], the Viability is, setting by setting: (active conc. 1.0 g/l) 8.80 log10CFU/ml; (active conc. 5.0 g/l) 8.60 log10CFU/ml; (active conc. 10.0 g/l) 8.09 log10CFU/ml. Also, the Fatty acid utilisation reads like this: (active conc. 1.0 g/l) 99%; (active conc. 5.0 g/l) 59%; (active conc. 10.0 g/l) 26%.
Take `OCc1ccc(O)cc1` [A, 4-hydroxybenzyl alcohol]: the Viability is recorded as 8.69 log10CFU/ml (active conc. 0.1 g/l), 8.85 log10CFU/ml (active conc. 0.25 g/l) and 8.17 log10CFU/ml (active conc. 0.5 g/l). Further, the Fatty acid utilisation (active conc. 0.1 g/l) is given as 100%, the Fatty acid utilisation (active conc. 0.25 g/l) amounted to 97% and the Fatty acid utilisation (active conc. 0.5 g/l) is 21%.
As for `COc1cc(CO)ccc1O` [Example 1, 4-hydroxy-3-methoxybenzyl alcohol], the Viability is, setting by setting: (active conc. 0.1 g/l) 8.91 log10CFU/ml; (active conc. 0.25 g/l) 8.88 log10CFU/ml; (active conc. 0.5 g/l) 8.28 log10CFU/ml. This molecule showed a Fatty acid utilisation (active conc. 0.1 g/l) of 65%, a Fatty acid utilisation (active conc. 0.25 g/l) of 40% and a Fatty acid utilisation (active conc. 0.5 g/l) of 20%. For the same molecule, the “Reduction of the fatty acid catabolism of corynebacteria A” value (at a concentration of 0.5 mg/ml or less) is “greater than 50%”. Besides, under “corynebacteria A”, the “Concentration producing sub-lethal inhibition (greater than 50% inhibition of pentadecanoic acid utilisation without reduction in cell viability, ≦1 log10 CFU/ml)” value was no more than 0.25 mg/ml.
